Laboratory results taken from patent US9073820B2, “Pharmaceutical compositions comprising napthamides” (OREGON HEALTH & SCIENCE UNIVERSITY, priority 2011, dated 2015).
Read-outs that look alike come from different tables or passages of the source.

Experiments:
[1] = test system: CREB-mediated gene transcription; assay: CREB reporter (pCRE-RLuc) assay in HEK 293T cells, forskolin-stimulated; assay type: cell-based; conditions: Homo sapiens, 5 h, read-out: CREB reporter inhibition (IC50)
Description: HEK293T cells in a 10-cm plate were transfected with pCRE-RLuc (6.0 μg) using Lipofectamine™ 2000 (Invitrogen, Carlsbad, Calif.) according to manufacturer's protocol. After 3 h, the transfected cells were collected and replated into 96-well plates (1-2×10^4 cells/well). The cells were allowed to attach to the bottom of the wells for overnight, when compounds of different concentrations were added to the cells. Forskolin (final concentration of 10 μM, LC Laboratories, Woburn, Mass.) was added 30 min after the addition of the compounds. The cells were then incubated at 37° C. for 5 h. The media in the wells were removed and the cells were then lysed in 30 μL of 1×Renilla luciferase lysis buffer (Promega, Madison, Wis.). To measure Renilla luciferase activity, five μL of the lysate was combined with 30 μL of benzyl-coelenterazine (Nanolight, Pinetop, Ariz.) solution in PBS (pH 7.4, 10 μg/mL). The sample protein concentration was determined by Dye Reagent Concentrate (Bio-Rad, Hercules, Calif.). The Renilla luciferase activity was normalized to protein content in each well and expressed as relative luciferase unit/μg protein (RLU/μg protein). The IC50 was derived from non-linear regression analysis of the RLU/μg protein-concentration curve in Prism 5.0 (La Jolla, Calif.).

[2] = test system: MDA-MB-231 (human breast cancer cells); assay: MTT cell growth inhibition, 72 h, MDA-MB-231; assay type: cell-based; conditions: MDA-MB-231, 72 h, read-out: MDA-MB-231 (GI50)
Description: (§1) A549 (human lung cancer cells), MCF-7 (human breast cancer cells), MDA-MB-231 (human breast cancer cells) and MDA-MB-468 cells (human breast cancer cells) were maintained in Dulbecco's modified Eagle medium (DMEM, Invitrogen, Carlsbad, Calif.) supplemented with 10% (v/v) fetal calf serum (Sigma, St. Louis, Mo.), 10 μg/mL penicillin and 10 μg/mL streptomycin (Invitrogen, Carlsbad, Calif.) at 37° C. under 5% CO2. On the day of experiment, different concentrations of the drugs (final concentration 10^−8-10^−4 M) in duplicates were added to the cells and the cells were further incubated for 72 h. Then, the number of live cells was quantified by 3-(4,5-dimethyl-2-thiazolyl)-2,5-diphenyl-2H-tetrazolium bromide (MTT reagent, Sigma, St. Louis, Mo.).
(§2) The amount of reduced MTT formazan generated by live cells was determined by its absorbance at 570 nm after subtracting the background absorbance at 690 nm. The percent of cell growth was expressed as (A570(treated)−A570(initial))/(A570(vehicle treated)−A570(initial))*100, where A570(initial) represents initial cell population when drugs are added. The GI50 were derived from non-linear regression analysis of the dose-response curve using Prism 4.0 (GraphPad). […] Data were presented as mean±SD of at least two measurements in duplicates unless noted.

[3] = test system: MDA-MB-468 cells (human breast cancer cells); assay: MTT cell growth inhibition, 72 h, MDA-MB-468; assay type: cell-based; conditions: MDA-MB-468, 72 h, read-out: MDA-MB-468 (GI50)
Description: as §1, §2

[4] = test system: MCF-7 (human breast cancer cells); assay: MTT cell growth inhibition, 72 h, MCF-7; assay type: cell-based; conditions: MCF7, 72 h, read-out: MCF-7 (GI50)
Description: as §1, §2

[5] = test system: A549 (human lung cancer cells); assay: MTT cell growth inhibition, 72 h, A549; assay type: cell-based; conditions: A549, 72 h, read-out: A549 (GI50)
Description: as §1, §2

KIX-KID = biological target: T1, KIX-KID (Homo sapiens, UniProt Q92793); assay: KIX-KID inhibition, split Renilla luciferase complementation (RLucC-KIX and KID-RLucN); assay type: binding; conditions: 4° C., 24 h
T1 construct: made in house
Description: RLucC-KIX (15 ng) and KID-RLucN-containing cell lysates (0.5 mg) were mixed together in Renilla luciferase lysis buffer (Promega, Madison, Wis.) in the presence of different concentrations of compounds. The final volume of the incubation mixture is 30 μL. The mixture was incubated at 4° C. for 24 h. Then Renilla luciferase activity was measured by combining 5 μL of incubation mixture with 30 μL of coelenterazine solution in PBS (pH 7.4, 10 μg/mL).

T1 sequence (Q92793 587-666 limits assumed): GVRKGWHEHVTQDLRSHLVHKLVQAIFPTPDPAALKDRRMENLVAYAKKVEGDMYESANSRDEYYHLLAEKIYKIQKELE

IC50 ([1]; HEK 293T, forskolin 10 μM) [nM]	IC50 (KIX-KID) [nM]	Structure (SMILES)	IC50 ([1]; HEK-293T) [nM]	GI50 [2] [nM]	GI50 [3] [nM]	other results
		NCCCOc1nc2ccccc2cc1C(=O)NCCOc1nc2ccccc2cc1C(=O)Nc1ccc(Cl)cc1F [Compound 9]	440 ± 340	370 ± 250		
		NCCCOc1nc2ccccc2cc1C(=O)NCCOc1cc2ccccc2cc1C(=O)Nc1ccc(Cl)cc1O [Compound 7]	170 ± 66	840 ± 180	140 ± 24	GI50 [4]: 190 nM; GI50 [5]: 640 nM
2290 ± 310	2900 ± 810	O=C(Nc1ccc(Cl)cc1)c1cc2ccccc2cc1O [Compound 1, reference compound]				GI50 ([3]; MTT, mean±SD): 1460 ± 300 nM; GI50 ([2]; MTT, mean±SD): 2350 ± 600 nM
		NCCCOc1cc2ccccc2cc1C(=O)NCCOc1nc2ccccc2cc1C(=O)Nc1ccc(Cl)cc1O [Compound 6]	72 ± 9	190 ± 120	13 ± 2	
2270 ± 280	8020 ± 360	NCCCOc1cc2ccccc2cc1C(=O)Nc1ccc(Cl)cc1OC(=O)c1cc2ccccc2cc1OCCCN [Compound 3, reference compound]				
		NCCCOc1nc2ccccc2cc1C(=O)NCCOc1nc2ccccc2cc1C(=O)Nc1ccc(Cl)cc1O [Compound 8]	4030 ± 200	540 ± 130	290 ± 55	
1950 ± 1140	170 ± 120	COc1cc2ccccc2cc1C(=O)Nc1ccccc1OC(=O)c1cc2ccccc2cc1OC [Compound 2, reference compound]				GI50 ([3]; MTT, mean±SD): 8130 ± 5470 nM; GI50 ([4]; MTT, mean±SD): 3380 ± 490 nM; GI50 ([2]; MTT, mean±SD): 23500 ± 2270 nM; GI50 ([5]; MTT, mean±SD): 8780 ± 2550 nM
